In patent publication US5350574A, “Derivatives of cyclosporina A, antibodies directed thereto and uses thereof” (The Trustees of Columbia University in the City of New York, priority 1991, dated 1994):
“Also recorded” adds a separate entry of the source.

Experiments:
[1] = tested on: DO-11.10; assay: Cell agglutination assay, DO-11.10 T-cell hybridoma; type: cell-based
Description: (§1) T or B cells (4-8×10^4 cells) were added to 200 μl of medium (see above) containing 50 μl of either PBS (vehicle control), aminodextran, BBa-aminodextran, or CsA-BBa-aminodextran at a concentration of 5×10^-7 M, in the presence or absence of various inhibitors or solvent controls, gently agitated on a platform shaker for 15 minutes at 25° C., incubated without agitation for 2-3 hours at 25° C., placed in a refrigerator and examined for agglutination periodically. The end points can begin to be seen after about 2-3 hours.

[2] = tested on: EL-4 cells; assay: Cell agglutination assay, EL-4 cells; type: cell-based; settings: inhibitor concentration not given
Description: as §1

[3] = tested on: 32-6.F12; assay: Cell agglutination assay, 32-6.F12 T-cell hybridoma; type: cell-based
Description: as §1

[4] = tested on: rabbit antibody R575 (anti-CsA); assay: Inhibition RIA for antibody specificity with CsA analogues; type: binding; settings: for IC50: read-out: IC50 (Concentration for 50% inhibition), inhibition of [3H]dihydro CsA binding to R575, overnight at 4° C.; for affinity group for the antibodies (inhibition RIA): result in words
Description: Serum antibodies were detected by a modification of the published radioimmunoassay (5, 12 ). […] Binding by diluted preimmune serum was used as a control. Free and bound ligand were separated with charcoal supplied by Sandoz according to their procedure.
The cyclosporin derivatives were dissolved in 100% ethanol at a concentration of 5.0 mg/ml, stored at -20° C., and diluted to final concentrations of 0.27 nM to 2.7 μM in Sandoz buffer B for the inhibition experiments.

Structure (SMILES)	IC50 [4]	inhibition of [3H]CsA binding obtainable ([4]; maximal inhibition by competing derivative)	inhibition of agglutination of DO-11.10 cells by CsA-BBa-aminodextran [1]	inhibition of agglutination of EL-4 cells by CsA-BBa-aminodextran [2]	inhibition of agglutination of 32-6.F12 cells by CsA-BBa-aminodextran [3]	affinity group for the antibodies (inhibition RIA) [4]
O=C(O)c1ccc(C(=O)c2ccccc2)cc1 [BBa, 4-Benzyoylbenzoic acid]			not	no inhibition	not	
C/C=C/C[C@@H](C)[C@@H](O)[C@H]1C(=O)N[C@@H]([C@@H](C)O)C(=O)N(C)CC(=O)N(C)[C@@H](CC(C)C)C(=O)N[C@@H](C(C)C)C(=O)N(C)[C@@H](CC(C)C)C(=O)N[C@@H](C)C(=O)N[C@H](C)C(=O)N(C)[C@@H](CC(C)C)C(=O)N(C)[C@@H](CC(C)C)C(=O)N(C)[C@@H](C(C)C)C(=O)N1C [CsC]	11.5 nM					Moderate affinities
C/C=C/C[C@@H](C)[C@@H](O)[C@H]1C(=O)N[C@@H](CC)C(=O)N(C)CC(=O)N(C)[C@@H](CC(C)C)C(=O)N[C@@H](C(C)C)C(=O)N(C)[C@H](C)C(=O)N[C@@H](C)C(=O)N[C@H](C)C(=O)N(C)[C@@H](CC(C)C)C(=O)N(C)[C@@H](CC(C)C)C(=O)N(C)[C@@H](C(C)C)C(=O)N1C [Derivative 039]	18 nM					Moderate affinities
C/C=C/C[C@@H](C)[C@@H](O)[C@H]1C(=O)N[C@@H](CC)C(=O)N2CCC[C@H]2C(=O)N(C)[C@@H](CC(C)C)C(=O)N[C@@H](C(C)C)C(=O)N(C)[C@@H](CC(C)C)C(=O)N[C@@H](C)C(=O)N[C@H](C)C(=O)N(C)[C@@H](CC(C)C)C(=O)N(C)[C@@H](CC(C)C)C(=O)N(C)[C@@H](C(C)C)C(=O)N1C [Derivative 582]	12 nM					Moderate affinities
C/C=C/C[C@@H](C)[C@@H](O)[C@H]1C(=O)N[C@@H]([C@@H](C)OC(C)=O)C(=O)N(C)CC(=O)N(C)[C@@H](CC(C)C)C(=O)N[C@@H](C(C)C)C(=O)N(C)[C@@H](CC(C)C)C(=O)N[C@@H](C)C(=O)N[C@H](C)C(=O)N(C)[C@@H](CC(C)C)C(=O)N(C)[C@@H](CC(C)C)C(=O)N(C)[C@@H](C(C)C)C(=O)N1C [Derivative 665]	4.8 nM					high affinity group; also recorded: bind best

Further lines, with some results ahead:

IC50 [4]	inhibition of [3H]CsA binding obtainable ([4]; maximal inhibition by competing derivative)	Structure (SMILES)	inhibition of agglutination of DO-11.10 cells by CsA-BBa-aminodextran [1]	inhibition of agglutination of EL-4 cells by CsA-BBa-aminodextran [2]	inhibition of agglutination of 32-6.F12 cells by CsA-BBa-aminodextran [3]	affinity group for the antibodies (inhibition RIA) [4]
4.3 nM		C/C=C/C[C@@H](C)[C@@H](O)[C@H]1C(=O)N[C@@H](C(C)C)C(=O)N(C)CC(=O)N(C)[C@@H](CC(C)C)C(=O)N[C@@H](C(C)C)C(=O)N(C)[C@@H](CC(C)C)C(=O)N[C@@H](C)C(=O)N[C@H](C)C(=O)N(C)[C@@H](CC(C)C)C(=O)N(C)[C@@H](CC(C)C)C(=O)N(C)[C@@H](C(C)C)C(=O)N1C [CsD]				high affinity group; also recorded: bind best
7 nM		C/C=C/C[C@@H](C)[C@@H](O)[C@H]1C(=O)N[C@@H](CC)C(=O)N(C)CC(=O)N(C)[C@@H](CC(C)C)C(=O)N[C@@H](C(C)C)C(=O)N(C)[C@@H](CC(C)C)C(=O)N[C@@H](C)C(=O)N[C@H](C)C(=O)N(C)[C@@H](CC(C)C)C(=O)N(C)[C@@H](CC(C)C)C(=O)N(C)[C@@H]([C@@H](C)CC)C(=O)N1C [Derivative 032]				high affinity group; also recorded: bind best
6 nM		C/C=C/C[C@@H](C)[C@@H](OC(C)=O)[C@H]1C(=O)N[C@@H](CC)C(=O)N(C)CC(=O)N(C)[C@@H](CC(C)C)C(=O)N[C@@H](C(C)C)C(=O)N(C)[C@@H](CC(C)C)C(=O)N[C@@H](C)C(=O)N[C@H](C)C(=O)N(C)[C@@H](CC(C)C)C(=O)N(C)[C@@H](CC(C)C)C(=O)N(C)[C@@H](C(C)C)C(=O)N1C [Derivative 243]				high affinity group; also recorded: bind best
2700 nM	more than 50%	C/C=C/C[C@@H](C)[C@@H](O)[C@H]1C(=O)N[C@@H](CC)C(=O)N(C)CC(=O)N(C)[C@@H](CC(C)C)C(=O)N[C@@H](C(C)C)C(=O)N(C)[C@@H](CC(C)C)C(=O)N[C@@H](C)C(=O)N[C@H](COC(C)(C)C)C(=O)N(C)[C@@H](CC(C)C)C(=O)N(C)[C@@H](CC(C)C)C(=O)N(C)[C@@H](C(C)C)C(=O)N1C [Derivative 717]				inhibits very poorly; also recorded: low affinity
